Measurements published in PubChem BioAssay (NCI).
“And” between values parts separate entries of the source, which are not always exact repeats. Equal entries are not always repeated.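 The compound was tested at five concentrations on cells cultured in 96-well plates, with a 48-hour exposure period. GI50 = concentration required for 50% inhibition of growth. At the TGI there is no net growth.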

Experiments:
Experiment in all cases: growth of human tumour cells (NCI), 48 h
CAKI-1 renal = system: CAKI-1 renal
HCT-15 colon = system: HCT-15 colon
HOP-92 NSCLC = system: HOP-92 NSCLC
NCI-H23 lung = system: NCI-H23 lung
OVCAR-4 ovarian = system: OVCAR-4 ovarian
RPMI-8226 leukemia = system: RPMI-8226 leukemia
SF-268 CNS = system: SF-268 CNS
SF-539 CNS = system: SF-539 CNS
SK-MEL-28 melanoma = system: SK-MEL-28 melanoma
UO-31 renal = system: UO-31 renal

Compound	TGI (CAKI-1 renal)	TGI (HCT-15 colon)	TGI (HOP-92 NSCLC)	TGI (NCI-H23 lung)	TGI (OVCAR-4 ovarian)	TGI (RPMI-8226 leukemia)	TGI (SF-268 CNS)	TGI (SF-539 CNS)	TGI (SK-MEL-28 melanoma)	TGI (UO-31 renal)	GI50 (OVCAR-4 ovarian)	GI50 (RPMI-8226 leukemia)	GI50 (HOP-92 NSCLC)	GI50 (NCI-H23 lung)	GI50 (SF-268 CNS)	GI50 (SF-539 CNS)
O=S1(=O)c2ccccc2NC(=S)N1c1ccccc1	> 100 µM	> 100 µM	45.3 µM	> 100 µM	> 100 µM	> 100 µM	> 100 µM	> 100 µM	> 100 µM	> 100 µM						
C=C1CC2C(=O)N(c3ccccc3)C(=O)C2CC1n1[nH]c(=O)n(Cc2ccccc2)c1=O (configuration not stated)	> 100 µM	> 100 µM	> 100 µM	> 100 µM	> 100 µM	> 100 µM	> 100 µM	> 100 µM	> 100 µM	> 100 µM						
COc1ccc(N2C(=O)C3c4[nH]c5ccccc5c4C4C(C)CCCC4C3C2=O)cc1 (configuration not stated)	> 100 µM	> 100 µM	> 100 µM	> 100 µM	> 100 µM	> 100 µM	> 100 µM	> 82.8 µM	> 100 µM	> 100 µM						
COC(=O)C(CCSC)NC(=O)CSc1nnc(COc2ccc(Cl)cc2)n1-c1ccccc1 (configuration not stated)	35.9 µM	39.8 µM	34.6 µM	34.9 µM	31.8 µM	34.5 µM	34.5 µM	33.7 µM	33.8 µM	13.7 µM						
COc1cc(/C=C/C(=O)O)ccc1OS(=O)(=O)O	> 100 µM	> 100 µM	> 100 µM	> 100 µM	> 100 µM	> 100 µM	> 100 µM	> 100 µM	> 100 µM	> 100 µM						
COC(=O)c1sc2ncc3c(c2c1N)CC(C)CC3 (configuration not stated)	> 100 µM	> 100 µM	> 100 µM	> 100 µM	> 100 µM	> 100 µM	> 100 µM	> 100 µM	> 100 µM	> 100 µM						
COC(=O)/C=C\S/C(=C(/c1ccccc1)n1ccc(C(=O)OC)n1)c1ccccc1	> 100 µM	> 100 µM	86.2 µM	> 100 µM	> 100 µM	> 100 µM	39.4 µM	> 100 µM	> 100 µM	38.7 µM						
COC(=O)[C@H]1C=C[C@H](OC2OC(COC(C)=O)C(OC(C)=O)C(OC(C)=O)C2OC(C)=O)n2c(=O)n(-c3ccccc3)c(=O)n21 (some centres not stated)	2.4 µM	3.55 µM	3.9 µM	15.6 µM	32.9 µM	5.04 µM	> 47.1 µM	4.44 µM	8.63 µM	4.96 µM	4.14 µM					
COc1cc(/C=C/c2cc(=O)cc(/C=C/c3ccc(O)c(OC)c3)o2)ccc1O	> 100 µM	> 100 µM	> 100 µM	> 100 µM	> 100 µM	> 20.7 µM	> 100 µM	> 100 µM	> 100 µM	> 100 µM						
CCCC[C@@H]1CCN2C[C@@H](O)[C@@H](O)[C@H]2[C@@H]1O	> 100 µM	> 100 µM	> 100 µM	> 100 µM	> 100 µM	> 100 µM	> 100 µM	> 100 µM	> 100 µM	> 100 µM						
CCN(CC(=O)O)CC(=O)O	> 100 µM	> 100 µM	> 100 µM	> 100 µM	> 100 µM	> 100 µM	> 100 µM	> 100 µM	> 100 µM	> 100 µM						
CN(C)c1nc(=NCc2ccccn2)ss1	> 10 µM	> 10 µM	> 10 µM	> 10 µM	> 10 µM	> 10 µM	> 10 µM	> 10 µM	> 10 µM	> 10 µM						
CC(O)(C(=O)N(O)c1ccc(Cl)cc1)c1ccc(Cl)cc1 (configuration not stated)	83.6 µM	65.7 µM	48.3 µM	59.7 µM	> 100 µM	37.3 µM	> 100 µM	> 100 µM	> 100 µM	42.4 µM						
CC(C)(C)c1ccc2c(c1)OCc1n[nH]c(n1)COc1cc(C(C)(C)C)ccc1OCCOCCO2	14.6 µM	18.3 µM	14.8 µM	12.5 µM	7.45 µM	8.41 µM	17.3 µM	21.5 µM	9.52 µM	13.1 µM						
CCOC(=O)Cc1nn2c(=O)cc(C)nc2s1	> 100 µM	> 100 µM	> 100 µM	> 100 µM	> 100 µM	> 100 µM	> 100 µM	> 100 µM	> 100 µM	> 100 µM						
COn1cc(CO)c2ccccc21	> 54.8 µM	> 100 µM	> 100 µM	> 100 µM	> 100 µM	> 100 µM	> 100 µM	> 100 µM	> 100 µM	> 82 µM						
Cc1ccc([N+](=O)[O-])c2c(NCCCN(C)C)ccnc12	> 100 µM	> 100 µM	> 100 µM	> 100 µM	> 76.9 µM	> 100 µM	> 100 µM	> 77 µM	> 100 µM	> 100 µM						
COc1cc2c(cc1O)CC[n+]1cc3c(OC)c(OC)ccc3cc1-2	> 100 µM	> 100 µM	> 100 µM	> 100 µM	> 100 µM	> 100 µM	> 100 µM	> 100 µM	> 100 µM	> 100 µM						

Compound	TGI (CAKI-1 renal)	TGI (HCT-15 colon)	TGI (HOP-92 NSCLC)	TGI (NCI-H23 lung)	TGI (OVCAR-4 ovarian)	TGI (RPMI-8226 leukemia)	TGI (SF-268 CNS)	TGI (SF-539 CNS)	TGI (SK-MEL-28 melanoma)	TGI (UO-31 renal)	GI50 (OVCAR-4 ovarian)	GI50 (RPMI-8226 leukemia)	GI50 (HOP-92 NSCLC)	GI50 (NCI-H23 lung)	GI50 (SF-268 CNS)	GI50 (SF-539 CNS)
N/C(CSCCSC/C(N)=N/O)=N\O	> 100 µM	> 100 µM	> 100 µM	> 100 µM	> 100 µM	> 100 µM	> 100 µM	> 100 µM	> 100 µM	> 100 µM						
CCOC(=O)/C(=C/c1ccco1)P(=O)(OCC)OCC	> 100 µM	> 100 µM	> 100 µM	> 100 µM	> 100 µM	> 100 µM	> 100 µM	> 100 µM	> 100 µM	> 100 µM						
NNC(=O)c1cccc2c1Oc1ccccc1S2	> 100 µM	> 100 µM	> 100 µM	> 100 µM	> 100 µM	> 100 µM	> 100 µM	> 100 µM	> 100 µM	> 100 µM						
C=C1CC=CC(C)(C)C1C/C=C(\C)C(O)CBr (configuration not stated)	54.1 µM	> 100 µM	> 100 µM	> 100 µM	> 100 µM	66.8 µM	> 100 µM	> 100 µM	> 100 µM	> 100 µM						
CC[P+](C#Cc1ccccc1)(c1ccccc1)c1ccccc1	32.8 µM	17.7 µM	5.9 µM	7.51 µM	12.3 µM	0.781 µM	8.71 µM	4.01 µM	4.68 µM	27 µM						
COc1ccc(/C=N/Nc2nc3ccccc3c(=O)n2-c2ccccc2)c(OCc2ccccc2)c1	> 100 µM	> 100 µM	> 100 µM	> 100 µM	> 100 µM	> 100 µM	> 100 µM	> 100 µM	> 100 µM	> 100 µM		> 100 µM				
OCC1OC(O[C@H]2CN3[C@H](O)[C@@H](O)[C@H](O)[C@H]3C2O)C(O)C(O)C1O (some centres not stated)	> 100 µM	> 100 µM	> 100 µM	> 100 µM	> 100 µM	> 100 µM	> 100 µM	> 100 µM	> 100 µM	> 100 µM						
Cc1cc(C)nc(NS(=O)(=O)c2ccc(Nc3c4ccccc4nc4c(C(=O)N5CCN(CCOS(C)(=O)=O)CC5)ccc(Cl)c34)cc2)n1	> 100 µM	> 100 µM	> 100 µM	> 100 µM	> 100 µM	> 100 µM	> 100 µM	> 100 µM	> 100 µM	> 100 µM						
COC(=O)/C(=N\NC(=S)NN)C(C(=O)C(=O)Nc1ccccc1C(N)=O)c1nc2ccccc2[nH]c1=O (configuration not stated)	> 100 µM	> 100 µM	> 100 µM	> 100 µM	> 100 µM	> 100 µM	> 100 µM	> 100 µM	> 100 µM	> 100 µM						
COc1ccc(CCCCl)c(C2=NCCc3ccccc32)c1	> 100 µM	> 100 µM	> 100 µM	> 100 µM	> 100 µM	21.7 µM	> 100 µM	> 100 µM	> 100 µM	> 100 µM						
Nc1n[nH]c2ccccc12	> 100 µM	> 100 µM	> 100 µM	> 100 µM	> 100 µM	> 100 µM	> 100 µM	> 100 µM	> 100 µM	> 100 µM						
COC(=O)C1=C(C)N2[C@H](C(=O)O)CS[C@@]2(C)[C@H](C(=O)OC)[C@H]1c1cccc([N+](=O)[O-])c1	> 100 µM	> 100 µM	> 100 µM	> 100 µM	> 100 µM	> 100 µM	> 100 µM	> 100 µM	> 100 µM	> 100 µM						
O=C(/C=C1\C[C@H]2C=Nc3ccccc3C(=O)N2C1)NCCCCCNC(=O)/C=C1\C[C@H]2C=Nc3ccccc3C(=O)N2C1	6.38 µM	10.6 µM	16.1 µM	26.2 µM	26.4 µM	> 72.7 µM	18.5 µM	> 49.9 µM	27.4 µM	3.8 µM						
O=[N+]([O-])c1ccc2nc3c(nc2c1)-c1c2ccccc2cc2cccc-3c12	> 40.7 µM	> 100 µM	58 µM	24.5 µM	> 100 µM	98.8 µM	> 100 µM	40.5 µM	> 100 µM	> 70.9 µM						
O=C(O)c1cc2ccccc2c(S(=O)(=O)O)c1O	> 100 µM	> 100 µM	> 100 µM	> 100 µM	> 100 µM	> 100 µM	> 100 µM	> 100 µM	> 100 µM	> 100 µM						
COc1cc2nc(-c3c(F)cccc3F)n(Cc3c(F)cccc3F)c2cc1Cc1c(F)cccc1F	> 100 µM	> 100 µM	> 30.8 µM	> 100 µM	10.9 µM	> 100 µM	> 100 µM	> 100 µM	1.4 µM	> 100 µM						
Clc1cccc(C2ON=C(c3ccccc3)N2C23CC4CC(CC(C4)C2)C3)c1Cl (configuration not stated)	> 10 µM	> 10 µM	> 10 µM	> 10 µM	> 10 µM	> 10 µM	> 10 µM	> 10 µM	> 10 µM	> 10 µM						
COCC(=O)OC1CCn2c1nc1c2C(=O)C(C)=C(NC(C)=O)C1=O (configuration not stated)	32.3 µM	30.1 µM	2.95 µM and 4.62 µM	22.5 µM	2.79 µM and 4.25 µM	4.76 µM and 9.5 µM	9 µM and 22.4 µM	3.85 µM and 9.32 µM	28.6 µM	26.2 µM	1.43 µM		1.38 µM	3.23 µM	3.07 µM	2.14 µM
